{"source": "patent US11077087B2", "about": "“Compositions comprising dihydroquercetin for use in methods for treating herpes” (BIONOOX SUISSE SA, priority 2015, dated 2021)", "format_in_all_cases": "cell-based", "key": {"[1]": {"test_system": "polymorphonuclear neutrophils", "assay": "Superoxide production by neutrophils, SOD-inhibitable ferricytochrome c reduction assay", "description": "(§1) PMA (12-O-tetradecanoyl-phorbol-13-acetate, Consolidated Midland Corp., Brewster, N.Y.) is dissolved at 1 mg/ml in dimethyl sulfoxide. This stock solution maintains full biological activity for several months when stored at […] in the dark. Unless otherwise specified, polymorphonuclear neutrophils (PMN), 10^6/ml in BS-H, are put into plastic centrifuge tubes (Falcon No. 2070, Falcon Labware, Div. of Becton, Dickinson & Co., Oxnard, Calif.) and brought to 37° C. PMA stock solution is added to provide a final concentration of 100 ng/ml of PMA. “Resting” (control) cells are exposed to […] dimethyl sulfoxide. A chemiluminescence (using luminol) method is used to measure Reactive Oxygen species (ROS) production (Dang et al, J Clin Invest. 2006, 116(7):2033-43; Boussetta et al, Blood. 2010, 116(26):5795-802). Superoxide production is measured by the superoxide dismutase (SOD)-inhibitable ferricytochrome c reduction assay.\nWhen activated by opsonized bacteria, zymozan, fMLP (Formyl-Methionyl-Leucyl-Phenylalanine) or PMA (phorbol myristate acetate), neutrophils undergo an oxidative burst resulting in the production of superoxide anion and subsequent hydrogen peroxide. The oxidative burst is mainly mediated by the NADPH oxidase activation, enzyme responsible of the superoxide anion production. […] This effect results either from the direct anion superoxide scavenging or from the inhibition of NADPH oxidase activation."}, "neutrophils [2]": {"test_system": "neutrophils", "assay": "ROS production by neutrophils triggered by PMA, luminol chemiluminescence", "details": "for Integral (total chemiluminescence counts, total ROS production) / Peak max / Slope max / T. Slope max / T. half (rise) / T. max (peak): PMA 100 ng/mL; for Integral (total chemiluminescence counts, total ROS production): 22.21 min", "description": "as §1\nNeutrophils are triggered by PMA (100 ng/mL) in the presence of different concentrations of DHQ (0, 1, 10 and 100 μM) at 37° C. in Hanks buffer containing 10 μM luminol and chemiluminescence is measured by a chemiluminometer. Total chemiluminescence counts during 22.21 min. (integrals) corresponding to total ROS production are determined."}, "neutrophils [3]": {"test_system": "neutrophils", "assay": "ROS production by neutrophils triggered by fMLP, luminol chemiluminescence", "details": "for Integral (total chemiluminescence counts, total ROS production): 22.21 min", "description": "Neutrophils (5×10^5) are suspended in 0.5 mL of Hanks balanced salt solution containing 10 μM luminol at 37° C. The cells are then stimulated with 10^−6M fMLP (N-formylmethionyl-leucyl-phenylalanine). Chemiluminescence is recorded with a luminometer (Berthold-Biolumat LB937). Similarly, neutrophils were triggered by fMLP (10^−6 M) in the presence of different concentrations of DHQ (0, 1, 10 and 100 μM) at 37° C. in Hanks buffer containing 10 μM luminol and chemiluminescence was measured by a chemiluminometer. Total chemiluminescence counts during 22.21 min. (integrals) corresponding to total ROS production were determined."}, "[4]": {"test_system": "polymorphonuclear neutrophils", "assay": "Oxygen consumption of polymorphonuclear neutrophils triggered by PMA and fMLP", "details": "data not shown"}, "human mast cells": {"test_system": "human mast cells", "assay": "Mast cell degranulation (IgE/anti-IgE), beta-hexosaminidase release", "from_the_text": "Pure populations of human mast cells (HMC) are obtained by long-term culture of human normal hematopoietic progenitors (CD34^+ cells) in the continuous presence of Stem Cell Factor (SCF). Sources of these CD34^+ cells are mainly bone marrow, cord blood or peripheral blood. Usually, mononuclear cells from bone marrow and cord blood contain 0.5-1% of CD34^+ cells, whereas peripheral blood contains less than 0.1% of CD34^+ cells. Hematopoietic progenitor cells can be rapidly and efficiently enriched to a purity of about 85-98% using positive selection of magnetically labeled CD34^+ cells. Hematopoietic progenitor cells are then magnetically labeled using MACS CD34 MicroBeads. The magnetically labeled cells are enriched on positive selection columns in the magnetic field. Mononuclear cells from peripheral blood (PBMC), cord blood, or bone marrow may otherwise be obtained by density gradient centrifugation over Ficoll Paque®. Fractionation methods for producing mast cells are described in the art (see for instance Arock et al., 2008, Methods in Molecular biology 415: 241-254). Mast cell degranulation was induced by sequential treatment of mast cell by IgE, then by anti-IgE antibodies. Degranulation was subsequently measured by evaluating the release of beta-hexosaminidase, 1 h after IgE stimulation (see FIG. 4)."}, "NIH-3T3 fibroblasts": {"test_system": "NIH-3T3 fibroblasts", "assay": "NIH-3T3 fibroblast proliferation, MTT assay", "details": "increasing DHQ concentrations", "description": "The NIH 3T3 cell line was purchased from the ATCC (CRL1658). Cell lines are grown in Dulbecco's Modified Eagles' Medium (DMEM) supplemented with 10% heat inactivated newborn calf serum, 100 UI/mL penicillin and 100 μg/mL streptomycin (all from Gibco BRL) at 37° C. in a humidified 5% CO2 atmosphere. DHQ is dissolved in DMSO. Cells are cultured during 48 hours in the absence or in the presence of various DHQ concentrations. NIH-3T3 fibroblasts are immortalized cells which mimic the inflammatory phenotype assessed by the abundance of actin stress fibers and high contractility.\nThe effects of DHQ on the growth of NIH-3T3 cells are determined using the 3-(4,5-dimetthylthiazol-2-yl)-2,5-diphenyltetrazolium bromide (MTT) assay. Briefly, cells are plated on 96 well plates at 4,000 cells per well with increasing DHQ concentrations. After 72 hours of incubation with the drug, medium is removed and replaced by complete medium+MTT (10% v/v). After 3 hours of incubation, formazan crystals are dissolved in buffer containing 10% SDS (w/v, Bio-Rad), 50% Dimethyl formamide (Sigma), pH 4.7. Absorbance of reduced formazan is measured at 580 nm. Results are presented in FIG. 5: 100% of MTT reduced is attributed to the measure performed in absence of DHQ."}, "[5]": {"details": "fMLP 10^−6 M, DHQ 1 μM (inferred)"}, "[6]": {"details": "fMLP 10^−6 M, DHQ 10 μM (inferred)"}, "[7]": {"details": "fMLP 10^−6 M, DHQ 100 μM (inferred)"}}, "data": [{"molecule": "O=C1c2c(O)cc(O)cc2OC(c2ccc(O)c(O)c2)C1O", "note": "(stereo not shown) [DHQ]", "values": [{"measurement": "cytochrome c reduction (anion superoxide production)", "setting": "[1]; +PMA, DHQ 1 μM", "result": 0.110, "unit": "dDO/min"}, {"measurement": "cytochrome c reduction (anion superoxide production)", "setting": "[1]; +PMA, DHQ 10 μM", "result": 0.070, "unit": "dDO/min"}, {"measurement": "cytochrome c reduction (anion superoxide production)", "setting": "[1]; +PMA, DHQ 100 μM", "result": 0.021, "unit": "dDO/min"}, {"measurement": "cytochrome c reduction (anion superoxide production)", "setting": "[1]; +fMLP, DHQ 1 μM", "result": 0.144, "unit": "dDO/min"}, {"measurement": "cytochrome c reduction (anion superoxide production)", "setting": "[1]; +fMLP, DHQ 10 μM", "result": 0.105, "unit": "dDO/min"}, {"measurement": "cytochrome c reduction (anion superoxide production)", "setting": "[1]; +fMLP, DHQ 100 μM", "result": 0.040, "unit": "dDO/min"}, {"measurement": "cytochrome c reduction (anion superoxide production)", "setting": "[1]; resting neutrophils, DHQ 1 μM", "result": 0.000, "unit": "dDO/min"}, {"measurement": "cytochrome c reduction (anion superoxide production)", "setting": "[1]; resting neutrophils, DHQ 10 μM", "result": 0.036, "unit": "dDO/min"}, {"measurement": "cytochrome c reduction (anion superoxide production)", "setting": "[1]; resting neutrophils, DHQ 100 μM", "result": 0.086, "unit": "dDO/min"}, {"measurement": "inhibition at 1 µM", "setting": "neutrophils [2]; Neutrophil, neutrophils activated by PMA, DHQ 1 μM", "result": "~80", "unit": "%"}, {"measurement": "Integral (total chemiluminescence counts, total ROS production)", "setting": "neutrophils [2]; DHQ 1 μM (line not labelled, concentration inferred)", "result": "4.509E+08"}, {"measurement": "Integral (total chemiluminescence counts, total ROS production)", "setting": "neutrophils [2]; DHQ 10 μM (line not labelled, concentration inferred)", "result": "2.0172E+08"}, {"measurement": "Integral (total chemiluminescence counts, total ROS production)", "setting": "neutrophils [2]; DHQ 100 μM (line not labelled, concentration inferred)", "result": "3.576E+07"}, {"measurement": "Peak max", "setting": "neutrophils [2]; DHQ 1 μM (inferred)", "result": "2.430E+07", "unit": "cpm"}, {"measurement": "Slope max", "setting": "neutrophils [2]; DHQ 1 μM (inferred)", "result": "9.790E+06", "unit": "cpm"}, {"measurement": "T. Slope max", "setting": "neutrophils [2]; DHQ 1 μM (inferred)", "result": 1.78}, {"measurement": "T. half (rise)", "setting": "neutrophils [2]; DHQ 1 μM (inferred)", "result": 2.44}, {"measurement": "T. max (peak)", "setting": "neutrophils [2]; DHQ 1 μM (inferred)", "result": 11.77}, {"measurement": "Peak max", "setting": "neutrophils [2]; DHQ 10 μM (inferred)", "result": "1.134E+07", "unit": "cpm"}, {"measurement": "Slope max", "setting": "neutrophils [2]; DHQ 10 μM (inferred)", "result": "4.380E+06", "unit": "cpm"}, {"measurement": "T. Slope max", "setting": "neutrophils [2]; DHQ 10 μM (inferred)", "result": 1.55}, {"measurement": "T. half (rise)", "setting": "neutrophils [2]; DHQ 10 μM (inferred)", "result": 2.22}, {"measurement": "T. max (peak)", "setting": "neutrophils [2]; DHQ 10 μM (inferred)", "result": 9.55}, {"measurement": "Peak max", "setting": "neutrophils [2]; DHQ 100 μM (inferred)", "result": "2.260E+06", "unit": "cpm"}, {"measurement": "Slope max", "setting": "neutrophils [2]; DHQ 100 μM (inferred)", "result": "1.033E+06", "unit": "cpm"}, {"measurement": "T. Slope max", "setting": "neutrophils [2]; DHQ 100 μM (inferred)", "result": 4.66}, {"measurement": "T. half (rise)", "setting": "neutrophils [2]; DHQ 100 μM (inferred)", "result": 4.89}, {"measurement": "T. max (peak)", "setting": "neutrophils [2]; DHQ 100 μM (inferred)", "result": 11.55}, {"measurement": "inhibition at 1 µM", "setting": "neutrophils [3]; Neutrophil, neutrophils activated by fMLP, DHQ 1 μM", "result": "~80", "unit": "%"}, {"measurement": "Integral (total chemiluminescence counts, total ROS production)", "setting": "neutrophils [3]; fMLP 10^−6 M, DHQ 1 μM (line not labelled, concentration inferred)", "result": "3.838E+08"}, {"measurement": "Integral (total chemiluminescence counts, total ROS production)", "setting": "neutrophils [3]; fMLP 10^−6 M, DHQ 10 μM (line not labelled, concentration inferred)", "result": "1.867E+08"}, {"measurement": "Integral (total chemiluminescence counts, total ROS production)", "setting": "neutrophils [3]; fMLP 10^−6 M, DHQ 100 μM (line not labelled, concentration inferred)", "result": "4.329E+07"}, {"measurement": "Peak max", "setting": "neutrophils [3]; [5]", "result": "3.731E+07", "unit": "cpm"}, {"measurement": "Slope max", "setting": "neutrophils [3]; [5]", "result": "2.492E+07", "unit": "cpm"}, {"measurement": "T. Slope max", "setting": "neutrophils [3]; [5]", "result": 0.22}, {"measurement": "T. half (fall)", "setting": "neutrophils [3]; [5]", "result": 3.78}, {"measurement": "T. max (peak)", "setting": "neutrophils [3]; [5]", "result": 1.33}, {"measurement": "Peak max", "setting": "neutrophils [3]; [6]", "result": "1.770E+07", "unit": "cpm"}, {"measurement": "Slope max", "setting": "neutrophils [3]; [6]", "result": "1.206E+07", "unit": "cpm"}, {"measurement": "T. Slope max", "setting": "neutrophils [3]; [6]", "result": 0.22}, {"measurement": "T. half (fall)", "setting": "neutrophils [3]; [6]", "result": 3.55}, {"measurement": "T. max (peak)", "setting": "neutrophils [3]; [6]", "result": 1.33}, {"measurement": "Peak max", "setting": "neutrophils [3]; [7]", "result": "2.533E+06", "unit": "cpm"}, {"measurement": "Slope max", "setting": "neutrophils [3]; [7]", "result": "1.464E+06", "unit": "cpm"}, {"measurement": "T. Slope max", "setting": "neutrophils [3]; [7]", "result": 2.00}, {"measurement": "T. half (rise)", "setting": "neutrophils [3]; [7]", "result": 1.55}, {"measurement": "T. max (peak)", "setting": "neutrophils [3]; [7]", "result": 6.00}, {"measurement": "oxygen consumption of polymorphonuclear neutrophils", "setting": "[4]", "result": "strongly inhibits"}, {"measurement": "inhibition at 10 µM", "setting": "human mast cells; Homo sapiens, Mast cell, DHQ 10 μM, beta-hexosaminidase release 1 h after IgE stimulation", "result": "≤ 50", "unit": "%"}, {"measurement": "inhibition at 100 µM", "setting": "human mast cells; Homo sapiens, Mast cell, DHQ 100 μM, beta-hexosaminidase release 1 h after IgE stimulation", "result": 80, "unit": "%"}, {"measurement": "inhibitory activity on degranulation compared with reference molecules", "setting": "human mast cells; versus kinase inhibitors and chromoglycate", "result": "superior to kinase inhibitors and chromoglycate"}, {"measurement": "cell viability of NIH-3T3 cells (extent of MTT reduced)", "setting": "NIH-3T3 fibroblasts", "result": "reduced"}]}]}
